Read-outs that look alike come from different tables or passages of the source.
Columns and labels:
RPMI 7951 = tested on: RPMI 7951; design: method as in PMID 34670333; conditions: Fig. 5, 9-OMe second generation derivatives; cited from earlier work
MDA-MB-231 = tested on: MDA-MB-231; design: method as in PMID 34670333; conditions: Fig. 5, 9-OMe second generation derivatives; cited from earlier work
HeLa [1] = tested on: HeLa; design: method as in PMID 34670333; conditions: Fig. 5, 9-OMe second generation derivatives; cited from earlier work
A549 = tested on: A549; design: method as in PMID 34670333; conditions: Fig. 5, 9-OMe second generation derivatives; cited from earlier work
PC-3 [2] = tested on: PC-3; design: method as in PMID 34670333; conditions: Fig. 5, 9-OMe second generation derivatives; cited from earlier work
MIA PaCa-2 = tested on: MIA PaCa-2; design: method as in PMID 34670333; conditions: Fig. 5, 9-OMe second generation derivatives; cited from earlier work
PC-3 [3] = experiment: MTT viability assay, PC-3; type: cell-based; conditions: PC-3; for IC50: Homo sapiens, MTT, 24 h incubation, mean ± standard error
Method: (§1) Using concentrations ranging from 0 to 100 μM against PC-3, SKOV-3, and HeLa cancerogenic cell lines, target compounds 4a–l were assessed for their anticancer activities[53] and compared with the commercially available Vinblastine and Doxorubicin. […] The compounds with the greatest cytotoxic activity against the cancerous cell lines PC-3, SKOV-3, and HeLa were 4a–c, 4g, and 4h. […] We selected the cytotoxic active compounds 4a–c, 4g, and 4h to be evaluated against MCF-7/ADR cancerogenic and HFL-1 and WI-38 non-cancerogenic cell lines (Figs. 7, 8 and Table 1).
(§2) The tumor cell lines (PC-3, SKOV-3, and HeLa), resistant cell strains (MCF-7/ADR) and the normal cell lines, (HFL-1, WI-38) were obtained from the American Type Culture Collection (ATCC, Rockville, MD, USA).
(§3) The tumor cell lines were suspended in medium at concentration 5 × 10^4 cells well^−1 in Corning® 96-well tissue culture plates and then incubated for 24 h. The tested compounds with concentrations ranging from 0 to 100 μM were then added into 96-well plates (six replicates) to achieve six different concentrations for each compound. Six vehicle controls with media or 0.5% DMSO were run for each 96 well plate as a control. After incubating for 24 h, the numbers of viable cells were determined by the MTT test[53]. Briefly, the media was removed from the 96 well plates and replaced with 100 μl of fresh culture RPMI 1640 medium without phenol red then 10 μl of the 12 mM MTT stock solution (5 mg of MTT in 1 ml of PBS) to each well including the untreated controls. The 96-well plates were then incubated at 37 °C and 5% CO2 for 4 h. An 85-μl aliquot of the media was removed from the wells, and 50 μl of DMSO was added to each well and mixed thoroughly with the pipette and incubated at 37 °C for 10 min. Then, the optical density was measured at 590 nm with the microplate reader (Sunrise, TECAN, Inc, USA) to determine the number of viable cells and the percentage of viability was calculated as […] where ODt is the mean optical density of wells treated with the tested sample and ODc is the mean optical density of untreated cells. The relation between surviving cells and drug concentration is plotted to get the survival curve of each tumor cell line after treatment with the specified compound. The 50% inhibitory concentration (IC50), the concentration required to cause toxic effects in 50% of intact cells, was estimated from graphic plots of the dose response curve for each concentration.

SKOV-3 = experiment: MTT viability assay, SKOV-3; type: cell-based; conditions: for IC50: Homo sapiens, SK-OV-3, MTT, 24 h incubation, mean ± standard error
Method: as §1, §2, §3

HeLa [4] = experiment: MTT viability assay, HeLa; type: cell-based; conditions: Homo sapiens, HeLa, 24 h incubation, mean ± standard error
Method: as §1, §2, §3

HepG-2 = tested on: HepG-2; design: method as in PMID 31586716; conditions: Fig. 5, 9-Br first generation derivatives; cited from earlier work
MCF-7 = tested on: MCF-7; design: method as in PMID 31586716; conditions: Fig. 5, 9-Br first generation derivatives; cited from earlier work
HCT-116 = tested on: HCT-116; design: method as in PMID 31586716; conditions: Fig. 5, 9-Br first generation derivatives; cited from earlier work
human fetal lung (HFL-1) = experiment: MTT viability assay, normal HFL-1; type: cell-based; conditions: HFL1, normal cell line, 24 h, mean ± standard error
Method: as §1, §2, §3

[5] = tested on: human diploid fibroblasts (WI-38); experiment: MTT viability assay, normal WI-38; type: cell-based; conditions: normal cell line, 24 h, mean ± standard error
Method: as §1, §2, §3

MCF-7/ADR = experiment: MTT viability assay, resistant MCF-7/ADR; type: cell-based
Method: as §1, §2, §3

melting point	IC50 (PC-3 [3])	IC50 (SKOV-3)	IC50 (HeLa [4])	Compound	IC50 (RPMI 7951)	IC50 (MDA-MB-231)	IC50 (HeLa [1])	IC50 (A549)	IC50 (PC-3 [2])	IC50 (MIA PaCa-2)	IC50 (HepG-2)	IC50 (MCF-7)	IC50 (HCT-116)	further results
–	–	–	–	COc1ccc2ccc3c(c2c1)C(c1ccc(I)cc1)C(C#N)=C(N)O3 (stereo not drawn) [compound 7]	6.5 µM	8.9 µM	12.1 µM	13.1 µM	12.9 µM	6.2 µM	–	–	–	–
–	–	–	–	COc1ccc2ccc3c(c2c1)C(c1ccc(Br)cc1)C(C#N)=C(N)O3 (stereo not drawn) [compound 6]	5.9 µM	7.8 µM	11.6 µM	12.7 µM	13.6 µM	6.8 µM	–	–	–	–
258 to 259 °C	37.2 ± 1.3 µM	35.2 ± 1.3 µM	33.7 ± 1.3 µM	Cc1ccc(C2C(C#N)=C(N)Oc3ccc4ccc(O)cc4c32)cc1 (stereo not drawn) [4f, 3-Amino-1-(4-methylphenyl)-9-hydroxy-1H-benzo[f]chromene-2-carbonitrile]	–	–	–	–	–	–	–	–	–	–
–	–	–	–	N#CC1=C(N)Oc2ccc3ccc(Br)cc3c2C1c1cccc(Cl)c1 (stereo not drawn) [compound 1]	–	–	–	–	–	–	770 nM	45.8 µM	1360 nM	–
–	–	–	–	COc1c(Br)cc(Br)cc1C1C(C#N)=C(N)Oc2ccc3ccc(Br)cc3c21 (stereo not drawn) [compound 5]	–	–	–	–	–	–	710 nM	3.67 µM	580 nM	–
294 to 295 °C	17.7 ± 0.7 µM	5.1 ± 0.8 µM	11.5 ± 0.9 µM	N#CC1=C(N)Oc2ccc3ccc(O)cc3c2C1c1ccncc1 (stereo not drawn) [4l, 3-Amino-9-hydroxy-1-(pyridin-4-yl)-1H-benzo[f]chromene-2-carbonitrile]	–	–	–	–	–	–	–	–	–	–
285 to 286 °C	8.8 ± 1.2 µM	4.8 ± 1.1 µM	7.9 ± 1.6 µM	N#CC1=C(N)Oc2ccc3ccc(O)cc3c2C1c1ccc(Br)cc1 (stereo not drawn) [4e, 3-Amino-1-(4-bromophenyl)-9-hydroxy-1H-benzo[f]chromene-2-carbonitrile]	–	–	–	–	–	–	–	–	–	–
–	–	–	–	COc1ccc2ccc3c(c2c1)C(c1ccc(Cl)cc1Cl)C(C#N)=C(N)O3 (stereo not drawn) [compound 8]	5.3 µM	7.1 µM	7.6 µM	6.8 µM	8.7 µM	6 µM	–	–	–	–
229 to 230 °C	0.9 ± 0.4 µM	0.7 ± 0.8 µM	0.9 ± 1.5 µM	COc1ccc(C2C(C#N)=C(N)Oc3ccc4ccc(O)cc4c32)cc1 (stereo not drawn) [4g, 3-Amino-1-(4-methoxyphenyl)-9-hydroxy-1H-benzo[f]chromene-2-carbonitrile]	–	–	–	–	–	–	–	–	–	IC50 (human fetal lung (HFL-1)): 77.5 ± 0.1 µM; times more potent than Doxorubicin, PC-3 (PC-3 [3]; ratio of IC50 values): 1.4 times; times more potent than Vinblastine, PC-3 (PC-3 [3]; ratio of IC50 values): 8.3 times; IC50 [5]: 84.5 ± 1.1 µM; IC50 (MCF-7/ADR; Homo sapiens, NCI/ADR-RES, MTT, 24 h exposure, mean ± standard error): 30.5 ± 0.7 µM; activity against MCF-7/ADR cell (in words) (MCF-7/ADR; with regard to Doxorubicin): inactive; times more potency than Doxorubicin, SKOV-3 (SKOV-3; ratio of IC50 values, SKOV-3): 1.6 times; times more potency than Vinblastine, SKOV-3 (SKOV-3; ratio of IC50 values, SKOV-3): 4.6 times
–	–	–	–	N#CC1=C(N)Oc2ccc3ccc(Br)cc3c2C1c1ccc(Cl)cc1 (stereo not drawn) [compound 2]	–	–	–	–	–	–	1670 nM	9.63 µM	800 nM	–
